# Data as given in ChEMBL document CHEMBL5360545, “Multitargeted drug design strategy for discovery of short-peptide-based HIV-1 entry inhibitors with high potency” (Eur J Med Chem, 2023).
# Side chains are listed from the residue outwards. Peptide text beside a SMILES is read from it. * marks the point of attachment. PEG24 = NCCOCCOCCOCCOCCOCCOCCOCCOCCOCCOCCOCCOCCOCCOCCOCCOCCOCCOCCOCCOCCOCCOCCOCCOCCC(=O)O; X3 = Cc1ccc(N(CCCN2CCN(Cc3ccc(F)cc3)CC2)C(=O)C2CCN(C(=O)COCC(=O)*)CC2)cc1Cl; X1 = CC(=O)N1CCC(C(=O)N(CCCN2CCC(Cc3ccc(C(=O)*)cc3)CC2)c2ccc(C)c(Cl)c2)CC1; PEG12 = NCCOCCOCCOCCOCCOCCOCCOCCOCCOCCOCCOCCOCCC(=O)O; PEG4 = NCCOCCOCCOCCOCCC(=O)O
# System: Human immunodeficiency virus 1
# Assay: Antiviral activity against HIV-1 Bal-R5 infected in human CEMx174 5.25M7 cells assessed as reduction in p24 antigen level measured after 4 days by ELISA
# Format: functional, organism-based
# Conditions: Human immunodeficiency virus 1, Bal-R5, CEMx174 5.25M7, 96 h
row,SMILES,EC50 [nM]
1,CC[C@H](C)[C@H](NC(C)=O)C(=O)N[C@@H](CCC(=O)O)C(=O)N[C@@H](CCC(=O)O)C(=O)N[C@@H](CC(C)C)C(=O)N[C@H](C(=O)N[C@@H](CCCNC(=N)N)C(=O)N[C@@H](C)C(=O)N[C@@H](C)C(=O)N[C@@H](CCC(N)=O)C(=O)N[C@@H](CCC(=O)O)C(=O)N[C@@H](CCC(N)=O)C(=O)N[C@@H](CCC(N)=O)C(=O)N[C@@H](CCCNC(=N)N)C(=O)N[C@@H](CCCCN)C(=O)N[C@@H](CC(N)=O)C(=O)N[C@@H](CCC(=O)O)C(=O)N[C@@H](CCC(=O)O)C(=O)N[C@@H](C)C(=O)N[C@@H](CC(C)C)C(=O)N[C@@H](CCCNC(=N)N)C(=O)N[C@@H](CCC(=O)O)C(=O)N[C@@H](CC(C)C)C(=O)N[C@@H](CCCCNC(=O)CCOCCOCCOCCOCCOCCOCCOCCOCCOCCOCCOCCOCCNC(=O)COCC(=O)N1CCC(C(=O)N(CCCN2CCN(Cc3ccc(F)cc3)CC2)c2ccc(C)c(Cl)c2)CC1)C(N)=O)[C@@H](C)CC (Ac-IEELIRAAQEQQRKNEEALRELK([PEG12-X3])-NH2),6.26
2,CC[C@H](C)[C@H](NC(=O)[C@H](CCCCN)NC(=O)[C@H](CCC(N)=O)NC(=O)[C@H](CCC(=O)O)NC(=O)[C@H](Cc1c[nH]c2ccccc12)NC(C)=O)C(=O)N[C@@H](CCC(=O)O)C(=O)N[C@@H](CCC(=O)O)C(=O)N[C@@H](CC(C)C)C(=O)N[C@@H](CC(C)C)C(=O)N[C@@H](CCCCN)C(=O)N[C@@H](CCCCN)C(=O)N[C@@H](C)C(=O)N[C@@H](CCC(=O)O)C(=O)N[C@@H](CCC(=O)O)C(=O)N[C@@H](CCC(N)=O)C(=O)N[C@@H](CCC(N)=O)C(=O)N[C@@H](CCCCN)C(=O)N[C@@H](CCCCN)C(=O)N[C@@H](CC(N)=O)C(=O)N[C@@H](CCC(=O)O)C(=O)N[C@@H](CCC(=O)O)C(=O)N[C@@H](CCC(=O)O)C(=O)N[C@@H](CC(C)C)C(=O)N[C@@H](CCCCN)C(=O)N[C@@H](CCCCN)C(=O)N[C@@H](CC(C)C)C(=O)N[C@@H](CCC(=O)O)C(=O)N[C@@H](CCCCN)C(=O)N[C@@H](CCCCNC(=O)c1ccc(CC2CCN(CCCN(C(=O)C3CCN(C(C)=O)CC3)c3ccc(C)c(Cl)c3)CC2)cc1)C(N)=O (Ac-WEQKIEELLKKAEEQQKKNEEELKKLEKK(X1)-NH2),1.75
3,CC[C@H](C)[C@H](NC(=O)[C@H](CCCCN)NC(=O)[C@H](CCC(N)=O)NC(=O)[C@H](CCC(=O)O)NC(=O)[C@H](Cc1c[nH]c2ccccc12)NC(C)=O)C(=O)N[C@@H](CCC(=O)O)C(=O)N[C@@H](CCC(=O)O)C(=O)N[C@@H](CC(C)C)C(=O)N[C@@H](CC(C)C)C(=O)N[C@@H](CCCCN)C(=O)N[C@@H](CCCCN)C(=O)N[C@@H](C)C(=O)N[C@@H](CCC(=O)O)C(=O)N[C@@H](CCC(=O)O)C(=O)N[C@@H](CCC(N)=O)C(=O)N[C@@H](CCC(N)=O)C(=O)N[C@@H](CCCCN)C(=O)N[C@@H](CCCCN)C(=O)N[C@@H](CC(N)=O)C(=O)N[C@@H](CCC(=O)O)C(=O)N[C@@H](CCC(=O)O)C(=O)N[C@@H](CCC(=O)O)C(=O)N[C@@H](CC(C)C)C(=O)N[C@@H](CCCCN)C(=O)N[C@@H](CCCCN)C(=O)N[C@@H](CC(C)C)C(=O)N[C@@H](CCC(=O)O)C(=O)N[C@@H](CCCCN)C(=O)N[C@@H](CCCCNC(=O)CCOCCOCCOCCOCCNC(=O)c1ccc(CC2CCN(CCCN(C(=O)C3CCN(C(C)=O)CC3)c3ccc(C)c(Cl)c3)CC2)cc1)C(N)=O (Ac-WEQKIEELLKKAEEQQKKNEEELKKLEKK([PEG4-X1])-NH2),1.11
4,CC[C@H](C)[C@H](NC(C)=O)C(=O)N[C@@H](CCC(=O)O)C(=O)N[C@@H](CCC(=O)O)C(=O)N[C@@H](CC(C)C)C(=O)N[C@H](C(=O)N[C@@H](CCCNC(=N)N)C(=O)N[C@@H](C)C(=O)N[C@@H](C)C(=O)N[C@@H](CCC(N)=O)C(=O)N[C@@H](CCC(=O)O)C(=O)N[C@@H](CCC(N)=O)C(=O)N[C@@H](CCC(N)=O)C(=O)N[C@@H](CCCNC(=N)N)C(=O)N[C@@H](CCCCN)C(=O)N[C@@H](CC(N)=O)C(=O)N[C@@H](CCC(=O)O)C(=O)N[C@@H](CCC(=O)O)C(=O)N[C@@H](C)C(=O)N[C@@H](CC(C)C)C(=O)N[C@@H](CCCNC(=N)N)C(=O)N[C@@H](CCC(=O)O)C(=O)N[C@@H](CC(C)C)C(=O)N[C@@H](CCCCNC(=O)CCOCCOCCOCCOCCOCCOCCOCCOCCOCCOCCOCCOCCOCCOCCOCCOCCOCCOCCOCCOCCOCCOCCOCCOCCNC(=O)c1ccc(CC2CCN(CCCN(C(=O)C3CCN(C(C)=O)CC3)c3ccc(C)c(Cl)c3)CC2)cc1)C(N)=O)[C@@H](C)CC (Ac-IEELIRAAQEQQRKNEEALRELK([PEG24-X1])-NH2),0.26
5,CC[C@H](C)[C@H](NC(=O)[C@H](CCCCN)NC(=O)[C@H](CCC(N)=O)NC(=O)[C@H](CCC(=O)O)NC(=O)[C@H](Cc1c[nH]c2ccccc12)NC(C)=O)C(=O)N[C@@H](CCC(=O)O)C(=O)N[C@@H](CCC(=O)O)C(=O)N[C@@H](CC(C)C)C(=O)N[C@@H](CC(C)C)C(=O)N[C@@H](CCCCN)C(=O)N[C@@H](CCCCN)C(=O)N[C@@H](C)C(=O)N[C@@H](CCC(=O)O)C(=O)N[C@@H](CCC(=O)O)C(=O)N[C@@H](CCC(N)=O)C(=O)N[C@@H](CCC(N)=O)C(=O)N[C@@H](CCCCN)C(=O)N[C@@H](CCCCN)C(=O)N[C@@H](CC(N)=O)C(=O)N[C@@H](CCC(=O)O)C(=O)N[C@@H](CCC(=O)O)C(=O)N[C@@H](CCC(=O)O)C(=O)N[C@@H](CC(C)C)C(=O)N[C@@H](CCCCN)C(=O)N[C@@H](CCCCN)C(=O)N[C@@H](CC(C)C)C(=O)N[C@@H](CCC(=O)O)C(=O)N[C@@H](CCCCN)C(=O)N[C@@H](CCCCNC(=O)CCOCCOCCOCCOCCOCCOCCOCCOCCOCCOCCOCCOCCNC(=O)c1ccc(CC2CCN(CCCN(C(=O)C3CCN(C(C)=O)CC3)c3ccc(C)c(Cl)c3)CC2)cc1)C(N)=O (Ac-WEQKIEELLKKAEEQQKKNEEELKKLEKK([PEG12-X1])-NH2),0.35
